# In ChEMBL document CHEMBL1201862, “PubChem BioAssay data set” (2004):
# Activity calls are given as the source filed them. Rule as the data show it, for most assays here: actives have a measured EC50 and inactives only a lower limit.
# How the values were obtained:
# [1] = molecular target: T1, RNA-binding protein pos-1 (Caenorhabditis elegans, UniProt G5EF15); test: inhibitors of POS-1/mex-3 RNA binding, dose response, biochemical, fluorescence polarization (AID 1964);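 also: purified POS-1 fused to maltose binding protein made in E. coli; potency of compounds blocking POS-1 binding to fluorescent RNA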
# T1 sequence (G5EF15 whole entry): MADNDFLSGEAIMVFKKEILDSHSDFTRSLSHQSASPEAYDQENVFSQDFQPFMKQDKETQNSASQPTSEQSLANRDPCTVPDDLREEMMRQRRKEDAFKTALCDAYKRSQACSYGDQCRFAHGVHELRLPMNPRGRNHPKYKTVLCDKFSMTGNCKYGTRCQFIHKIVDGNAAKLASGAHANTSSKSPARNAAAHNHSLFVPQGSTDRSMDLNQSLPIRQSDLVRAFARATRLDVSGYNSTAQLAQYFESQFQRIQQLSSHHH
# [2] = molecular target: T2, Zinc finger protein mex-5 (Caenorhabditis elegans, UniProt Q9XUB2); test: MEX-5/TCR-2 RNA interaction inhibitors, dose response, biochemical, C. elegans, fluorescence polarization (AID 1960)
# T2 sequence (Q9XUB2 whole entry): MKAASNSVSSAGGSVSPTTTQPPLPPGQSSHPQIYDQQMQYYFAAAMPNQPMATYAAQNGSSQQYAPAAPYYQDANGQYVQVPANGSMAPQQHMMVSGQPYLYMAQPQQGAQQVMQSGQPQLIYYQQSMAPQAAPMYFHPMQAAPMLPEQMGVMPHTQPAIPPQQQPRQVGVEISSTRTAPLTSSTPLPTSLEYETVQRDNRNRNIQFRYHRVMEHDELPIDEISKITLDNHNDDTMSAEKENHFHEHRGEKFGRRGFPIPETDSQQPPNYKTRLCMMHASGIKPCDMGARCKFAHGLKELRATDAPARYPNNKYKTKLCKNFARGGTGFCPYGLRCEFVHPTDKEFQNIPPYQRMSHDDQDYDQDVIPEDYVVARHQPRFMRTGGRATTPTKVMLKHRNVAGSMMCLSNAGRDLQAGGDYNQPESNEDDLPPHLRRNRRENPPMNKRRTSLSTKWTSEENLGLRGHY
# Cytochrome P450 2D6 = Cytochrome P450 2D6 (Homo sapiens, UniProt P10635);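 also: CYP2D6 member of a cytochrome P450 panel assay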
# Cytochrome P450 2C9 = Cytochrome P450 2C9 (Homo sapiens, UniProt P11712)
# [3] = P. falciparum Dd2 growth inhibitors, dose response, SYBR Green, dry powder samples, set 9 (AID 1159568); format: functional, cell-based
# Leucine aminopeptidase = molecular target: T3, Leucine aminopeptidase (Plasmodium falciparum 3D7, UniProt Q8IL11); test: P. falciparum M17LAP inhibitors, primary screen, biochemical, fluorogenic H-Leu-NHMec substrate, 1536-well (AID 1619); format: functional
# T3 sequence (Q8IL11 whole entry): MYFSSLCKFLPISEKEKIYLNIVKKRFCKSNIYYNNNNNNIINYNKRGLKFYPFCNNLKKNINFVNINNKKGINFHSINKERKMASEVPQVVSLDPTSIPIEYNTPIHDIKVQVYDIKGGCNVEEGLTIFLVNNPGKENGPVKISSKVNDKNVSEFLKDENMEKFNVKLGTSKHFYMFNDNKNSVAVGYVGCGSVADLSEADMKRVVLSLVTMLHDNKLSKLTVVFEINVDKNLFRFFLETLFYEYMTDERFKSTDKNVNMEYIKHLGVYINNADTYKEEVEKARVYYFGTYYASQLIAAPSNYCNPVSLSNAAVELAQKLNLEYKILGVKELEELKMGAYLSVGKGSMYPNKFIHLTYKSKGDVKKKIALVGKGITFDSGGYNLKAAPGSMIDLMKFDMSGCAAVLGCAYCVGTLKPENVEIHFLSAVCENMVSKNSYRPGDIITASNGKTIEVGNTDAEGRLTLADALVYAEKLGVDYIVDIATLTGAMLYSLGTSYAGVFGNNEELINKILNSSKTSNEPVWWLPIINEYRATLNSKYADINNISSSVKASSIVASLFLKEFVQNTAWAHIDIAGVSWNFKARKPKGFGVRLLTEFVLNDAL
# [4] = molecular target: FAD-linked sulfhydryl oxidase ALR (Homo sapiens, UniProt P55789); test: inhibitors of human ALR sulfhydryl oxidase, dose response, biochemical, H2O2 detection, luminescence, cherry-pick (AID 493248)
# BJ [5] = test: cytotoxicity toward BJ-TERT-LT-ST fibroblasts, dose response, cell-based, RAS-independent, luminescence (AID 1935); format: functional; details: Homo sapiens;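 also: BJ fibroblasts immortalized with TERT plus LT and ST oncogenes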
# [6] = cytotoxicity toward DRD oncogenic fibroblasts, dose response, cell-based, non-viral oncogenic, luminescence (AID 1934); format: functional; details: Homo sapiens
# BJ [7] = test: cytotoxicity toward BJ-TERT fibroblasts, dose response, cell-based, RAS-independent, luminescence (AID 1933); format: functional; details: Homo sapiens
# BJ [8] = test: cells; format: functional, cell-based; details: Homo sapiens
# Sequence of Cytochrome P450 2C9 (P11712 whole entry): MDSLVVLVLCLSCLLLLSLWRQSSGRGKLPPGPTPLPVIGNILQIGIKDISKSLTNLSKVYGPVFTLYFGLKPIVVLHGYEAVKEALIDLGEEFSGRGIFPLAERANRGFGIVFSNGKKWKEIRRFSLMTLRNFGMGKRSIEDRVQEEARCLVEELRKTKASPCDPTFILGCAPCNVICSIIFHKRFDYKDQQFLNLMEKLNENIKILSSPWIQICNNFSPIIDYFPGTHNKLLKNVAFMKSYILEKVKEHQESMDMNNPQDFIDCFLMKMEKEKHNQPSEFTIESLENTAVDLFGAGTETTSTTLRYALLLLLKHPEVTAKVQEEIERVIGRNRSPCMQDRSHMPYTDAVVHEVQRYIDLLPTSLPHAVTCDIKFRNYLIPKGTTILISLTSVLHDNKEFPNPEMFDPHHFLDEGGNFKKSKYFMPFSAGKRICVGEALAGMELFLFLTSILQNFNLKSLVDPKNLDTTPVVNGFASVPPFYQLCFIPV
# Sequence of Cytochrome P450 2D6 (P10635 whole entry): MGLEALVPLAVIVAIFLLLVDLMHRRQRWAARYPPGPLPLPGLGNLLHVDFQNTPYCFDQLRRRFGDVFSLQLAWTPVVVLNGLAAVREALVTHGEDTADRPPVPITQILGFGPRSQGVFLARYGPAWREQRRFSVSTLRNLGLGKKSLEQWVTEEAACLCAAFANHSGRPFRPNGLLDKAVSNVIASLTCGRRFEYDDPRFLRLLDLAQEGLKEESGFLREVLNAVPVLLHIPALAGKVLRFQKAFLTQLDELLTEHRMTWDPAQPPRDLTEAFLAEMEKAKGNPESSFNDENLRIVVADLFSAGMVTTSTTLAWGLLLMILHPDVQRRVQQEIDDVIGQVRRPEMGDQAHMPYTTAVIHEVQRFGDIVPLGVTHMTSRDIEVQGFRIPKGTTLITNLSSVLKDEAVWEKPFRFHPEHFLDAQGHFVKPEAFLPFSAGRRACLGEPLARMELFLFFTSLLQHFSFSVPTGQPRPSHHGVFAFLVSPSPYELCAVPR
# Sequence of FAD-linked sulfhydryl oxidase ALR (P55789 whole entry): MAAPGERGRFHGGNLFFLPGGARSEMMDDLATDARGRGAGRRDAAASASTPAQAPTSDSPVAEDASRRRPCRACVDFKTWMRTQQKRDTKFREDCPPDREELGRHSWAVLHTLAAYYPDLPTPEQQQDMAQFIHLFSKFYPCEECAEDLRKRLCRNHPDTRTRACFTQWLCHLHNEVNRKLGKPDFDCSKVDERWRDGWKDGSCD
compound,measurement,setting,value
CCOC(=O)c1cc2c(=O)n3ccccc3nc2n(C(C)C)/c1=N\C(=O)c1ccncc1,EC50,[1],> 300 µM (not active)
same,EC50,[2],> 300 µM (not active)
Cn1c(=O)c2cc(S(=O)(=O)NCCC(=O)NCc3ccccc3Cl)ccc2n(C)c1=O,AC50,Cytochrome P450 2D6,17.8 µM (inconclusive)
same,AC50,Cytochrome P450 2C9,inconclusive
C[C@@H]1CCCCO[C@@H](CN(C)S(=O)(=O)c2ccc(F)cc2)[C@H](C)CN([C@@H](C)CO)C(=O)c2cc(N(C)C)ccc2O1,AC50,[3],7.31 µM (active)
CCN(CC)c1ccc(NC(=O)Cn2cc3c(n2)CCC(C)C3)c(C)c1 (stereo not drawn),IC50,Leucine aminopeptidase,6.41 µM (active)
same,AC50,[4],48.8 µM (active)
C[C@@H]1CN([C@@H](C)CO)C(=O)c2ccccc2-c2ccccc2CO[C@@H]1CN(C)S(=O)(=O)Cc1ccccc1,AC50,[3],21.9 µM (active)
Cc1nn(C)c(C)c1CN(C)C(=O)C1c2ccccc2Oc2ccccc21,EC50,[1],15.5 µM (active)
same,EC50,[2],9.86 µM (active)
CC1=NN(C(N)=S)C(=O)C1N=Nc1ccc(S(N)(=O)=O)cc1 (stereo not drawn),EC50,[1],19.7 µM (active)
same,EC50,[2],8.86 µM (active)
CSc1nnc(-c2ccccc2/N=C/c2c(C)nn(-c3ccccc3)c2O)c(O)n1,IC50,Leucine aminopeptidase,48.6 µM (active)
Cc1ccc(C(=O)c2cc3ccccc3o2)cc1[N+](=O)[O-],EC50,BJ [5],> 150 µM (inconclusive)
same,EC50,[6],> 150 µM (not active)
same,EC50,BJ [7],> 150 µM (not active)
same,EC50,BJ [8],> 150 µM (not active)
C[C@H](CO)N1C[C@H](C)[C@H](CN(C)S(=O)(=O)c2ccccc2)OCCCC[C@H](C)Oc2ccc(NC(=O)Nc3ccc4c(c3)OCO4)cc2C1=O,AC50,[3],8.9 µM (active)
CCOC(=O)c1cccc(NC(=O)CSc2nc(N)cc(N)n2)c1,IC50,Leucine aminopeptidase,13.8 µM (active)
C/N=C1\S/C(=C\c2cn(CC(=O)OC)c3ccccc23)C(=O)N1C,EC50,[1],> 300 µM (not active)
same,EC50,[2],> 300 µM (not active)
COc1ccc(NC(=O)CSc2c(C)nn(-c3nnc(C)c(=O)[nH]3)c2C)cc1,IC50,Leucine aminopeptidase,83.7 µM (active)
COc1ccc2c3c([nH]c2c1)[C@H](CO)N(C(C)=O)CC31CCN(C(=O)Nc2ccc(F)cc2F)CC1,AC50,[3],0.548 µM (active)
